The subject of one test is SK-OV-3. Briefly: Cytotoxicity against human SKOV3 cells incubated for 24 hrs by MTT asasy. The format is functional, cell-based. The settings on record: sk-ov-3.
A further test concerns CHO-K1. Briefly: Cytotoxicity against CHOK1 cells incubated for 24 hrs by MTT asasy. Type of test: cell-based, Cricetulus griseus.
A further test deals with HeLa. The experiment in a line: Cytotoxicity against human HeLa cells incubated for 24 hrs by MTT asasy. The format is functional, cell-based. Particulars: Homo sapiens, HeLa, 24 h; read-out: IC50.
Another test concerns DU-145. Briefly: Cytotoxicity against human DU145 cells incubated for 24 hrs by MTT asasy. The format is functional, cell-based.
In the next test the test system is Staphylococcus aureus. Briefly: Antibacterial activity Staphylococcus aureus MTCC 96 by agar well method. The format is functional.
In a further test the test system is Klebsiella pneumoniae. The experiment in a line: Antibacterial activity Klebsiella pneumoniae MTCC 618 by agar well method. Type of test: functional.
Another test deals with Escherichia coli. Briefly: Antibacterial activity Escherichia coli MTCC 443 by agar well method. Type of test: functional.
A further test deals with Bacillus subtilis. Briefly: Antibacterial activity Bacillus subtilis MTCC 441 by agar well method. The format is functional.
A further test deals with MDA-MB-231. The experiment in a line: Cytotoxicity against human MDA-MB-231 cells incubated for 24 hrs by MTT asasy. Particulars: Homo sapiens, MDA-MB-231, 24 h; read-out: IC50. The format is functional, cell-based.
Test [1] deals with Staphylococcus epidermidis. The experiment in a line: Antibacterial activity Staphylococcus epidermidis MTCC 9041 by agar well method. The format is functional.
For another test, the system named is Pseudomonas aeruginosa. Briefly: Antibacterial activity Pseudomonas aeruginosa MTCC 1688 by agar well method. The format is functional.
Where [2] appears, read: Cricetulus griseus, CHO-K1, 24 h, read-out: IC50.
The mark [3] stands for this setting: Homo sapiens, DU-145, 24 h, read-out: IC50.

Data on six compounds can be found in ChEMBL document CHEMBL4033749, “Synthesis and biological evaluation of 5-fatty-acylamido-1, 3, 4-thiadiazole-2-thioglycosides” (Bioorg Med Chem Lett, 2017).

Activity calls are given as the source filed them.

By IC50 is commonly meant the point on the concentration scale where inhibition reaches its midpoint. As a reminder, the MIC is the smallest concentration in the dilution series that meets the test's criterion for growth inhibition.

For `CCCCCCCC(=O)Nc1nnc(S[C@@H]2O[C@H](COC(C)=O)[C@H](OC(C)=O)[C@H](OC(C)=O)[C@H]2OC(C)=O)s1`, the IC50 entry in the test on SK-OV-3 is “Not Active”; with CHO-K1 (setting [2]) it was 19.2 µM; with HeLa it was 43.6 µM; in the test with DU-145 (du-145) it was “Not Active”; in the test with MDA-MB-231, 18.9 µM. Besides, the MIC result (in the test with Staphylococcus aureus; in the test on Klebsiella pneumoniae; in the test on Escherichia coli; with Bacillus subtilis; in test [1]; in the test on Pseudomonas aeruginosa) was “inactive” each time.
With `CCCCCCCCCC(=O)Nc1nnc(S[C@@H]2O[C@H](COC(C)=O)[C@H](OC(C)=O)[C@H](OC(C)=O)[C@H]2OC(C)=O)s1`, the IC50 entry is “Not Active” in the test on SK-OV-3; 19.4 µM with CHO-K1 (setting [2]); 44.9 µM with HeLa; 34.4 µM with DU-145 (setting [3]); 19.2 µM in the test on MDA-MB-231. Besides, the MIC result (with Staphylococcus aureus; with Klebsiella pneumoniae; with Escherichia coli; with Bacillus subtilis; in [1]; with Pseudomonas aeruginosa) was “inactive” throughout.
Take `CCCCCCCCCCCCCC(=O)Nc1nnc(S[C@@H]2O[C@H](COC(C)=O)[C@H](OC(C)=O)[C@H](OC(C)=O)[C@H]2OC(C)=O)s1`: the IC50 result in the test on SK-OV-3 is “Not Active”; with CHO-K1 (setting [2]) it was 16.3 µM; in the test on HeLa, 61.3 µM; in the test on DU-145 (setting [3]) it was 34.7 µM; in the test on MDA-MB-231, 26.2 µM. Also, the MIC result (in the test on Staphylococcus aureus; in the test with Klebsiella pneumoniae; in the test with Escherichia coli; with Bacillus subtilis; in test [1]; with Pseudomonas aeruginosa) was “inactive” throughout.
As for `CCCCCC(=O)Nc1nnc(S[C@@H]2O[C@H](CO)[C@H](O)[C@H](O)[C@H]2O)s1`, the IC50 entry in the test with SK-OV-3 was “Not Active”; in the test on CHO-K1 (cho-k1), “Not Active”; in the test with HeLa it was 45.6 µM; in the test with DU-145 (du-145) it was “Not Active”; in the test with MDA-MB-231, 28.7 µM. The minimal inhibitory concentration (MIC) (in the test with Staphylococcus aureus; in the test on Klebsiella pneumoniae; in the test on Escherichia coli; with Bacillus subtilis; in test [1]; against Pseudomonas aeruginosa) was above 150 µg/mL throughout.
In the case of `CCCCCCCCCCCCCCCCCC(=O)Nc1nnc(S[C@@H]2O[C@H](COC(C)=O)[C@H](OC(C)=O)[C@H](OC(C)=O)[C@H]2OC(C)=O)s1`, the IC50 entry in the test with SK-OV-3 was “Not Active”; in the test on CHO-K1 (setting [2]) it was 44.7 µM; with HeLa, 97.5 µM; in the test on DU-145 (setting [3]) it was 31.2 µM; in the test on MDA-MB-231, 23.6 µM. The MIC result (in the test with Staphylococcus aureus; in the test on Klebsiella pneumoniae; in the test with Escherichia coli; in the test with Bacillus subtilis; in [1]; with Pseudomonas aeruginosa) was “inactive” in each case.
As for `CCCCCCCC/C=C\CCCCCCCC(=O)Nc1nnc(S[C@@H]2O[C@H](COC(C)=O)[C@H](OC(C)=O)[C@H](OC(C)=O)[C@H]2OC(C)=O)s1`, the IC50 entry in the test with SK-OV-3 was “Not Active”; with CHO-K1 (setting [2]) it was 26.3 µM; in the test with HeLa, 54.4 µM; in the test with DU-145 (setting [3]), 42 µM; in the test on MDA-MB-231 it was 23.6 µM. The MIC entry (in the test on Staphylococcus aureus; in the test with Klebsiella pneumoniae; in the test with Escherichia coli; with Bacillus subtilis; in test [1]; in the test on Pseudomonas aeruginosa) was “inactive” each time.
